In US6841577B2, “Pesticidal activity of plant essential oils and their constituents” (Ecosmart Technologies, Inc., priority 1999, dated 2005):

Test system: octopamine receptor sites
Assay: 3H-OA binding to ventral nerve cord / synaptosomal membrane protein
Parameters: species or system American cockroach (Periplaneta americana)
Details: for cpm 3H-OA/500 μg protein: Table 3; for classification with respect to octopamine receptor sites (OAR): based on the binding data of Tables 1-3; for dpm 3H-OA/500 μg protein: Table 2
Method: Different concentrations of unlabeled octopamine (OA) (20, 30, 40, 50, 60, 100 ng) were tested on the binding activity as a positive control. Test chemicals were dissolved in acetone before the assay. Different concentrations of the test chemicals were added directly to the protein preparation from ventral nerve cord. The same amount of solvent (1 μl 0.1%) were added to the control samples. All assays with test chemicals were run in the presence and absence of 50 ng OA. All chemicals were added to the protein extract 20 min prior the addition of radio labeled ^3H-OA(100,000 cpm/sample). After 30 min at 24° C. of the addition of ^3H-OA, the reaction was stopped by the addition of ice-cold Tris buffer, and the samples were filtered through GF/C membrane using water vacuum. After two washes each with 5 ml Tris buffer, the membrane was removed, air dried and the radioactivity was counted in 4 ml liquid scintillation solution. The specific binding was calculated as the difference between the values in the presence and absence of unlabeled OA. All data are calculated as the mean±standard deviation of 5 assays.
Additional tests were conducted on radio labeled octopamine using other purified naturally occurring materials as given in Tables 2 and 3.

[1] = 500 ng/ml, solvent control 1385 ± 101
[2] = 1000 ng/ml, solvent control 1915 ± 110
[3] = 500 ng/ml, solvent control 1101 ± 120
[4] = 1000 ng/ml, solvent control 930 ± 89

Compound	agonist/antagonist note to 3H-OA binding (500 ng/ml)	cpm 3H-OA/500 μg protein [1] [cpm 3H-OA/500 μg protein]	cpm 3H-OA/500 μg protein [2] [cpm 3H-OA/500 μg protein]	classification with respect to octopamine receptor sites (OAR)	dpm 3H-OA/500 μg protein [3] [dpm 3H-OA/500 μg protein]	dpm 3H-OA/500 μg protein [4] [dpm 3H-OA/500 μg protein]
Cc1ccc(C(C)C)cc1 [p-cymene]	antagonist	1142 ± 074	804 ± 057	moderate OAR antagonists		
OCc1ccc2c(c1)OCO2 [Piperonyl alcohol]	antagonist	1124 ± 083	862 ± 61			
COc1ccccc1O [Guaiacol]		1787 ± 151		Non-OAR Specific Toxicants		
CC1=CC[C@H](C(C)C)C=C1 [α-phellandrene]	agonist	2353 ± 343		OAR Agonists		
COc1cc(C=O)ccc1O [Vanillin]	antagonist	1030 ± 83	700 ± 55			
CCOc1cc(C=O)ccc1O [Ethyl vanillin]		1723 ± 119		Non-OAR Specific Toxicants		
C=C(C)[C@H]1CC=C(C)CC1 [R-limonene]		1436 ± 133		Non-OAR Specific Toxicants		
Citronellal 80	antagonist			moderate OAR antagonists	725 ± 95	526 ± 33
C/C=C/c1ccc(OC)cc1 [Trans-Anethole]	antagonist	1104 ± 110	970 ± 87	moderate OAR antagonists		
CC(=O)OCc1ccc2c(c1)OCO2 [Piperonyl acetate]	antagonist	1090 ± 092	519 ± 52			
CC(C)=CCCC(C)CCO (stereo not shown) [Citronellol]					999 ± 65	557 ± 43
O=Cc1ccc2c(c1)OCO2 [Piperonal]		1680 ± 131		Non-OAR Specific Toxicants		
